Experimental findings from US20180319810A1, “SUBSTITUTED BRIDGED UREA ANALOGS AS SIRTUIN MODULATORS” (GlaxoSmithKline Intellectual Property (No.2) Limited, priority 2014, published 2018) are described below.

This assay deals with T1, SIRT1 (Homo sapiens, UniProt Q96EB6).
T1 sequence (Q96EB6 1-747): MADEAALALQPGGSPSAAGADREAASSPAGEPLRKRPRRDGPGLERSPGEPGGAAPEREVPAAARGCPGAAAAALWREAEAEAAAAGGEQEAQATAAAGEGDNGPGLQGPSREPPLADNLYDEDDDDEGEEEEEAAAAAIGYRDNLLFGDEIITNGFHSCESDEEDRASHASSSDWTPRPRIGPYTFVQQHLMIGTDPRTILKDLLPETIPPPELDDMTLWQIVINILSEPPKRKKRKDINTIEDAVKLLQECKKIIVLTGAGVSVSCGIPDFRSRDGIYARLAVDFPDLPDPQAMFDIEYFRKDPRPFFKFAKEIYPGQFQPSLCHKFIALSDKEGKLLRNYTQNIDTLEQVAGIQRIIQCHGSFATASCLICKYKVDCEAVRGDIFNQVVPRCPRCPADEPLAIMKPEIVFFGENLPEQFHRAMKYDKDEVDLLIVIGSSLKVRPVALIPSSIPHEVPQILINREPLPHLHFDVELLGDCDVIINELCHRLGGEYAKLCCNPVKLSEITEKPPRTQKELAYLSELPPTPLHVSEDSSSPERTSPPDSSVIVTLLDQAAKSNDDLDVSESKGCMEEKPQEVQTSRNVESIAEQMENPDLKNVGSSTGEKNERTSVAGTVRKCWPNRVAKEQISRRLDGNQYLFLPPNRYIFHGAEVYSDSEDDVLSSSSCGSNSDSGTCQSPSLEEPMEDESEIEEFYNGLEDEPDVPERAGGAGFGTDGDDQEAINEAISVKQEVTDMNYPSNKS
The assay can be described thus: Trp mass spectrometry assay of SIRT1 activation. The note with it: Trp peptide Ac-R-H-K-K(Ac)-W-NH2 0.5 μM, 120 μM βNAD+, 10 nM SIRT1, 25 min, 25° C. Type of assay: biochemical. An excerpt:
Mass spectrometry based assays were used to identify modulators of SIRT1 activity. […] The peptide was labeled with the fluorophore 5TMR (excitation 540 nm/emission 580 nm) at the C-terminus. The sequence of the peptide substrate was based on p53 with several modifications. In addition, the methionine residue naturally present in the sequence was replaced with the norleucine because the methionine may be susceptible to oxidation during synthesis and purification.
The Trp mass spectrometry assay was conducted as follows. […] The SIRT1 protein was obtained by cloning the SirT1 gene into a T7-promoter containing vector, which was then expressed in BL21(DE3) bacterial cells and purified as described in further detail below. Test compound was added at varying concentrations to this reaction mixture and the resulting reactions were monitored. After the 25 minute incubation with SIRT1, 10 μL of 10% formic acid was added to stop the reaction. The resulting reactions were sealed and frozen for later mass spec analysis. The relative SIRT1 activity was then determined by measuring the amount of O-acetyl-ADP-ribose (OAADPR) formed (or, alternatively, the amount of deacetylated Trp peptide generated) by the NAD-dependent sirtuin deacetylation reaction in the presence of varying concentrations of the test compound versus control reactions lacking the test compound.
The degree to which the test agent activated deacetylation by SIRT1 was expressed as EC1.5 (i.e., the concentration of compound required to increase SIRT1 activity by 50% over the control lacking test compound), and Percent Maximum Activation (i.e., the maximum activity relative to control (100%) obtained for the test compound).
This time point was the same as that used for test compounds and, within the linear range, the endpoint represents a change in velocity.
For the above assay, SIRT1 protein was expressed and purified as follows. The SirT1 gene was cloned into a T7-promoter containing vector and transformed into BL21(DE3). The protein was expressed by induction with 1 mM IPTG as an N-terminal His-tag fusion protein at 18° C. overnight and harvested at 30,000×g. Cells were lysed with lysozyme in lysis buffer (50 mM Tris-HCl, 2 mM Tris[2-carboxyethyl]phosphine (TCEP), 10 μM ZnCl2, 200 mM NaCl) and further treated with sonication for 10 min for complete lysis. The protein was purified over a Ni-NTA column (Amersham) and fractions containing pure protein were pooled, concentrated and run over a sizing column (Sephadex S200 26/60 global). The peak containing soluble protein was collected and run on an Ion-exchange column (MonoQ). Gradient elution (200 mM-500 mM NaCl) yielded pure protein. This protein was concentrated and dialyzed against dialysis buffer (20 mM Tris-HCl, 2 mM TCEP) overnight. The protein was aliquoted and frozen at −80° C. until further use.
“NT” means not tested; “ND” means not determinable.
With `O=C(Nc1cc(OC[C@H](O)CO)ccn1)N1c2nc(-c3cccc(C(F)(F)F)c3)ncc2N2CCC[C@H]1C2` [Example 80, (9S)—N-(4-((R)-2,3-dihydroxypropoxy)pyridin-2-yl)-2-(3-(trifluoromethyl)phenyl)-8,9-dihydro-6H-5,9-methanopyrimido[4,5-b][1,4]diazocine-10(7H)-carboxamide], the “TRP Activity (EC1.5, concentration of compound required to increase SIRT1 activity by 50% over control)” value is reported as “A (EC1.5<1 μM)” and the “TRP MAX RESP (percent maximum fold activation relative to control)” value is on record as “A (Fold activation ≥150%)”.

With `C[C@@H](NC(=O)c1ncc2c(n1)N(C(=O)Nc1ccccn1)[C@H]1CCCN2C1)C(F)(F)F` [Example 63, (9S)—N10-(pyridin-2-yl)-N2-((R)-1,1,1-trifluoropropan-2-yl)-8,9-dihydro-6H-5,9-methanopyrimido[4,5-b][1,4]diazocine-2,10(7H)-dicarboxamide], the “TRP Activity (EC1.5, concentration of compound required to increase SIRT1 activity by 50% over control)” value was “A (EC1.5<1 μM)” and the “TRP MAX RESP (percent maximum fold activation relative to control)” value is given as “A (Fold activation ≥150%)”.

Consider `O=C(Nc1ccc(OC[C@@H](O)CO)cn1)N1c2nc(-c3cccc(C(F)(F)F)c3)ncc2N2CC[C@H]1C2` [Example 42, (8S)—N-(5-((S)-2,3-dihydroxypropoxy)pyridin-2-yl)-2-(3-(trifluoromethyl)phenyl)-7,8-dihydro-5,8-methanopyrimido[4,5-b][1,4]diazepine-9(6H)-carboxamide], for which the “TRP Activity (EC1.5, concentration of compound required to increase SIRT1 activity by 50% over control)” value was “B (EC1.5 1-25 μM)” and the “TRP MAX RESP (percent maximum fold activation relative to control)” value is listed as “A (Fold activation ≥150%)”.

As for `O=C(Nc1ncc(OC[C@@H](O)CO)cn1)N1c2nc(-c3cccc(C(F)(F)F)c3)ncc2N2CC[C@H]1C2` [Example 43, (8S)—N-(5-((S)-2,3-dihydroxypropoxy)pyrimidin-2-yl)-2-(3-(trifluoromethyl)phenyl)-7,8-dihydro-5,8-methanopyrimido[4,5-b][1,4]diazepine-9(6H)-carboxamide], the “TRP Activity (EC1.5, concentration of compound required to increase SIRT1 activity by 50% over control)” value is recorded as “B (EC1.5 1-25 μM)” and the “TRP MAX RESP (percent maximum fold activation relative to control)” value is recorded as “A (Fold activation ≥150%)”.

On to `O=C(Nc1ccnc(OC[C@H](O)CO)n1)N1c2nc(-c3cccc(C(F)(F)F)c3)ncc2N2CCC[C@H]1C2` [Example 88, (9S)—N-(2-((R)-2,3-dihydroxypropoxy)pyrimidin-4-yl)-2-(3-(trifluoromethyl)phenyl)-8,9-dihydro-6H-5,9-methanopyrimido[4,5-b][1,4]diazocine-10(7H)-carboxamide], for which the “TRP Activity (EC1.5, concentration of compound required to increase SIRT1 activity by 50% over control)” value was “A (EC1.5<1 μM)” and the “TRP MAX RESP (percent maximum fold activation relative to control)” value is on record as “A (Fold activation ≥150%)”.

As for `O=C(Nc1ccc(OC[C@@H](O)CO)nc1)N1c2nc(-c3cccc(C(F)(F)F)c3)ncc2N2CC[C@H]1C2` [Example 38, (8S)—N-(6-((S)-2,3-dihydroxypropoxy)pyridin-3-yl)-2-(3-(trifluoromethyl)phenyl)-7,8-dihydro-5,8-methanopyrimido[4,5-b][1,4]diazepine-9(6H)-carboxamide], the “TRP Activity (EC1.5, concentration of compound required to increase SIRT1 activity by 50% over control)” value was “A (EC1.5<1 μM)” and the “TRP MAX RESP (percent maximum fold activation relative to control)” value was “A (Fold activation ≥150%)”.

Turning to `O=C(NC1CC1)c1ncc2c(n1)N(C(=O)Nc1ccccn1)[C@H]1CCCN2C1` [Example 116, (9S)—N2-cyclopropyl-N10-(pyridin-2-yl)-8,9-dihydro-6H-5,9-methanopyrimido[4,5-b][1,4]diazocine-2,10(7H)-dicarboxamide], the “TRP Activity (EC1.5, concentration of compound required to increase SIRT1 activity by 50% over control)” value is reported as “C (EC1.5>25 μM)” and the “TRP MAX RESP (percent maximum fold activation relative to control)” value is reported as “A (Fold activation ≥150%)”.

In the case of `Cc1nc(C(=O)N[C@H](C)C(F)(F)F)nc2c1N1CCC[C@@H](C1)N2C(=O)Nc1ccc(OC[C@@H](O)CO)cn1` [Example 118, (9S)—N10-(5-((S)-2,3-dihydroxypropoxy)pyridin-2-yl)-4-methyl-N2-((R)-1,1,1-trifluoropropan-2-yl)-8,9-dihydro-6H-5,9-methanopyrimido[4,5-b][1,4]diazocine-2,10(7H)-dicarboxamide], the “TRP Activity (EC1.5, concentration of compound required to increase SIRT1 activity by 50% over control)” value was “A (EC1.5<1 μM)” and the “TRP MAX RESP (percent maximum fold activation relative to control)” value is on record as “A (Fold activation ≥150%)”.

In the case of `O=C(Nc1ccnc(OC[C@H](O)CO)c1)N1c2nc(-c3cccc(C(F)(F)F)c3)ncc2N2CCC[C@H]1C2` [Example 90, (9S)—N-(2-((R)-2,3-dihydroxypropoxy)pyridin-4-yl)-2-(3-(trifluoromethyl)phenyl)-8,9-dihydro-6H-5,9-methanopyrimido[4,5-b][1,4]diazocine-10(7H)-carboxamide], the “TRP Activity (EC1.5, concentration of compound required to increase SIRT1 activity by 50% over control)” value is listed as “A (EC1.5<1 μM)” and the “TRP MAX RESP (percent maximum fold activation relative to control)” value is “A (Fold activation ≥150%)”.

Take `Cc1cc(-c2nc(C)c3c(n2)N(C(=O)Nc2ccccn2)[C@H]2CCN3C2)ccn1` [Example 10, (8S)-4-methyl-2-(2-methylpyridin-4-yl)-N-(pyridin-2-yl)-7,8-dihydro-5,8-methanopyrimido[4,5-b][1,4]diazepine-9(6H)-carboxamide]: the “TRP Activity (EC1.5, concentration of compound required to increase SIRT1 activity by 50% over control)” value is “B (EC1.5 1-25 μM)” and the “TRP MAX RESP (percent maximum fold activation relative to control)” value is given as “A (Fold activation ≥150%)”.

As for `O=C(Nc1cc(OC[C@@H](O)CO)ncn1)N1c2nc(-c3cccc(C(F)(F)F)c3)ncc2N2CC[C@H]1C2` [Example 29, (8S)—N-(6-((S)-2,3-dihydroxypropoxy)pyrimidin-4-yl)-2-(3-(trifluoromethyl)phenyl)-7,8-dihydro-5,8-methanopyrimido[4,5-b][1,4]diazepine-9(6H)-carboxamide], the “TRP Activity (EC1.5, concentration of compound required to increase SIRT1 activity by 50% over control)” value was “B (EC1.5 1-25 μM)” and the “TRP MAX RESP (percent maximum fold activation relative to control)” value is “A (Fold activation ≥150%)”.

As for `Cc1nc(-c2cccc(C(F)(F)F)c2)nc2c1N1CCC[C@@H](C1)N2C(=O)Nc1cncc(OC[C@@H](O)CO)c1` [Example 109, (9S)—N-(5-((S)-2,3-dihydroxypropoxy)pyridin-3-yl)-4-methyl-2-(3-(trifluoromethyl)phenyl)-8,9-dihydro-6H-5,9-methanopyrimido[4,5-b][1,4]diazocine-10(7H)-carboxamide], the “TRP Activity (EC1.5, concentration of compound required to increase SIRT1 activity by 50% over control)” value is reported as “A (EC1.5<1 μM)” and the “TRP MAX RESP (percent maximum fold activation relative to control)” value is “A (Fold activation ≥150%)”.

On to `Cc1nc(-c2cccc(C(F)(F)F)c2)nc2c1N1CCC[C@@H](C1)N2C(=O)Nc1nccc(OC[C@H](O)CO)n1` [Example 111, (9S)—N-(4-((R)-2,3-dihydroxypropoxy)pyrimidin-2-yl)-4-methyl-2-(3-(trifluoromethyl)phenyl)-8,9-dihydro-6H-5,9-methanopyrimido[4,5-b][1,4]diazocine-10(7H)-carboxamide], for which the “TRP Activity (EC1.5, concentration of compound required to increase SIRT1 activity by 50% over control)” value was “A (EC1.5<1 μM)” and the “TRP MAX RESP (percent maximum fold activation relative to control)” value is recorded as “A (Fold activation ≥150%)”.
